Earlier results in US8282955B2, “Method for the preparation of a pharmaceutical composition comprising 5-aminosalicylic acid for use in treatment of ulcerative colitis and Crohn's disease” (Ferring B.V., priority 2001, dated 2012).

Details: moisture and light

- Stability: poor stability
SMILES: Nc1ccc(O)c(C(=O)O)c1 [Batch 5-ASA, 5-aminosalicylic acid]
